According to patent US12540141B2, “Spiropyrrolidine derived antiviral agents” (priority 2020, dated 2026):

Biological target: SARS-CoV-2 3CL-protease (Severe acute respiratory syndrome coronavirus 2, UniProt P0DTD1)
Experiment: SARS-CoV-2 3C-Like (3CL) Protease Fluorescence Assay (FRET)
Format: biochemical
Conditions: SARS-CoV-2 3CL-protease 10 nM, 30 min preincubation at RT, substrate 40 μM

SMILES	IC50 [nM]
[2H]C([2H])([2H])N(C(=O)c1cn(C2CCC2)nn1)[C@@H](CCCC)C(=O)N1C[C@]2(C[C@H]1C#N)C(=O)Nc1ccccc12 [Example 392]	< 100
[2H]C([2H])([2H])N(C(=O)c1cn(C(C)(C)C)nn1)[C@@H](CCCC)C(=O)N1C[C@]2(C[C@H]1C#N)C(=O)Nc1ccccc12 [Example 393]	< 100
[2H]C([2H])([2H])N(C(=O)c1cnn(CC(F)(F)F)c1)[C@@H](CC1CC1)C(=O)N1C[C@]2(C[C@H]1C#N)C(=O)Nc1ccccc12 [Example 395]	< 100
[2H]C([2H])([2H])N(C(=O)c1cnn(-c2ccc(C(F)(F)F)cc2)c1)[C@@H](CC1CC1)C(=O)N1C[C@]2(C[C@H]1C#N)C(=O)Nc1ccccc12 [Example 396]	< 100
[2H]C([2H])([2H])N(C(=O)c1nnn2ccccc12)[C@@H](CCCC)C(=O)N1C[C@]2(C[C@H]1C#N)C(=O)Nc1ccccc12 [Example 397]	< 100
[2H]C([2H])([2H])N(C(=O)c1cnn2cc(Cl)ccc12)[C@@H](CCCC)C(=O)N1C[C@]2(C[C@H]1C#N)C(=O)Nc1ccccc12 [Example 398]	< 100
[2H]C([2H])([2H])N(C(=O)c1cnn(C(C)(C)C)c1C(F)(F)F)[C@@H](CC1CC1)C(=O)N1C[C@]2(C[C@H]1C#N)C(=O)Nc1ccccc12 [Example 400]	< 100
[2H]C([2H])([2H])N(C(=O)c1cn(CC(F)(F)F)nc1C1CC1)[C@@H](CC1CC1)C(=O)N1C[C@]2(C[C@H]1C#N)C(=O)Nc1ccccc12 [Example 401]	< 100
CN(C(=O)c1cn(C(C)(C)C)nn1)[C@@H](CC1CC1)C(=O)N1C[C@]2(C[C@H]1C#N)C(=O)Nc1ccccc12 [Example 402]	< 100
CN(C(=O)c1cnn(-c2ccc(F)cc2)c1)[C@@H](CC1CC1)C(=O)N1C[C@]2(C[C@H]1C#N)C(=O)Nc1ccccc12 [Example 405]	< 100
CN(C(=O)c1cnn(-c2ccc(C(F)(F)F)cc2)c1)[C@@H](CC1CC1)C(=O)N1C[C@]2(C[C@H]1C#N)C(=O)Nc1ccccc12 [Example 406]	< 100
CN(C(=O)c1cnc(C(F)(F)F)[nH]1)[C@@H](CC1CC1)C(=O)N1C[C@]2(C[C@H]1C#N)C(=O)Nc1ccccc12 [Example 407]	< 100
CCCC[C@@H](C(=O)N1C[C@]2(C[C@H]1C#N)C(=O)Nc1ccccc12)N(C)C(=O)c1cnn(C(C)(C)C)c1 [Example 408]	< 100
CN(C(=O)c1cnn(C(C)(C)C)c1Cl)[C@@H](CC1CC1)C(=O)N1C[C@]2(C[C@H]1C#N)C(=O)Nc1ccccc12 [Example 409]	< 100
CN(C(=O)c1cnc(C(C)(C)C)[nH]1)[C@@H](CC1CC1)C(=O)N1C[C@]2(C[C@H]1C#N)C(=O)Nc1ccccc12 [Example 410]	< 100
CN(C(=O)c1cnn(C2CCCCC2)c1)[C@@H](CC1CC1)C(=O)N1C[C@]2(C[C@H]1C#N)C(=O)Nc1ccccc12 [Example 411]	< 100
CN(C(=O)c1cc2c(F)cc(F)c(F)c2[nH]1)[C@@H](CCC(C)(C)C)C(=O)N1C[C@]2(C[C@H]1C#N)C(=O)Nc1ccccc12 [Example 412]	< 100
CCCOC[C@@H](C(=O)N1C[C@]2(C[C@H]1C#N)C(=O)Nc1ccccc12)N(C)C(=O)c1cc2c(F)cc(F)cc2[nH]1 [Example 413, N—((S)-1-((3R,5′S)-5′-cyano-2-oxospiro[indoline-3,3′-pyrrolidin]-1′-yl)-1-oxo-3-propoxypropan-2-yl)-4,6-difluoro-N-methyl-1H-indole-2-carboxamide]	< 100
CN(C(=O)[C@H](O)C(C)(C)C)[C@@H](CC1CC1)C(=O)N1C[C@]2(C[C@H]1C#N)C(=O)Nc1ccccc12 [Example 417]	< 100

SMILES	IC50 [nM]
CCCC[C@H](NC(=O)[C@@H](O)c1ccc(F)cc1)C(=O)N1C[C@]2(C[C@H]1C#N)C(=O)Nc1ccccc12 [Example 418]	< 100
CCCC[C@H](NC(=O)[C@H](O)c1ccc(F)cc1)C(=O)N1C[C@]2(C[C@H]1C#N)C(=O)Nc1ccccc12 [Example 419]	< 100
CN(C(=O)[C@H](O)Cc1ccc(F)cc1)[C@@H](CC1CC1)C(=O)N1C[C@]2(C[C@H]1C#N)C(=O)Nc1ccccc12 [Example 423]	< 100
CC(C)C[C@@H](O)C(=O)N(C)[C@@H](CC1CC1)C(=O)N1C[C@]2(C[C@H]1C#N)C(=O)Nc1ccccc12 [Example 424]	< 100
CN(C(=O)[C@H](O)c1ccccc1F)[C@@H](CC1CC1)C(=O)N1C[C@]2(C[C@H]1C#N)C(=O)Nc1ccccc12 [Example 425]	< 100
CN(C(=O)[C@H](O)c1ccccc1Cl)[C@@H](CC1CC1)C(=O)N1C[C@]2(C[C@H]1C#N)C(=O)Nc1ccccc12 [Example 426]	< 100
[2H]C([2H])([2H])N(C(=O)[C@@H](O)c1ccccc1)[C@@H](CC(C)(C)C)C(=O)N1C[C@]2(C[C@H]1C#N)C(=O)Nc1ccccc12 [Example 427]	< 100
[2H]C([2H])([2H])N(C(=O)[C@H](O)c1ccccc1)[C@@H](CC(C)(C)C)C(=O)N1C[C@]2(C[C@H]1C#N)C(=O)Nc1ccccc12 [Example 428]	< 100
COc1ccc(CN(C(=O)C(F)(F)F)[C@@H](CC(C)C)C(=O)N2C[C@]3(C[C@H]2C#N)C(=O)Nc2ccccc23)cc1 [Example 429]	> 1000
COc1cccc(CN(C(=O)C(F)(F)F)[C@@H](CC(C)C)C(=O)N2C[C@]3(C[C@H]2C#N)C(=O)Nc2ccccc23)c1 [Example 430]	> 1000
COc1ccccc1CN(C(=O)C(F)(F)F)[C@@H](CC(C)C)C(=O)N1C[C@]2(C[C@H]1C#N)C(=O)Nc1ccccc12 [Example 431]	> 1000
CC(C)C[C@@H](C(=O)N1C[C@]2(C[C@H]1C#N)C(=O)Nc1ccccc12)N(C(=O)C(F)(F)F)C(C)C [Example 432]	> 1000
CC(C)C[C@@H](C(=O)N1C[C@]2(C[C@H]1C#N)C(=O)Nc1ccccc12)N(C)C(=O)NCc1ccccc1 [Example 433]	< 100
CC(C)C[C@@H](C(=O)N1C[C@]2(C[C@H]1C#N)C(=O)Nc1ccccc12)N(C)C(=O)N1Cc2cn[nH]c2C1 [Example 434]	100 to 1000
CC(C)(C)C[C@H](NC(=O)Nc1ccccc1)C(=O)N1C[C@]2(C[C@H]1C#N)C(=O)Nc1ccccc12 [Example 435]	100 to 1000
CC(C)(C)C[C@H](NC(=O)Nc1ccc(F)cc1F)C(=O)N1C[C@]2(C[C@H]1C#N)C(=O)Nc1ccccc12 [Example 436]	100 to 1000
CC(C)(C)C[C@H](NC(=O)Nc1c(F)cccc1F)C(=O)N1C[C@]2(C[C@H]1C#N)C(=O)Nc1ccccc12 [Example 437]	100 to 1000
Cc1cccc(C)c1NC(=O)N[C@@H](CC(C)(C)C)C(=O)N1C[C@]2(C[C@H]1C#N)C(=O)Nc1ccccc12 [Example 438]	100 to 1000
CC(C)(C)C[C@H](NC(=O)Nc1ccc2ccccc2c1)C(=O)N1C[C@]2(C[C@H]1C#N)C(=O)Nc1ccccc12 [Example 439]	100 to 1000

SMILES	IC50 [nM]
CC(C)(C)C[C@H](NC(=O)NC1CCCCC1)C(=O)N1C[C@]2(C[C@H]1C#N)C(=O)Nc1ccccc12 [Example 440]	< 100
CC(C)(C)C[C@H](NC(=O)Nc1ccc(F)cc1)C(=O)N1C[C@]2(C[C@H]1C#N)C(=O)Nc1ccccc12 [Example 441]	100 to 1000
CC(=O)C[C@@H](C(=O)N1C[C@]2(C[C@H]1C#N)C(=O)Nc1ccccc12)N(C)C(=O)c1cc2c(F)cc(F)cc2[nH]1 [Example 442]	< 100
CN(C(=O)c1cc2c(F)cc(F)cc2[nH]1)[C@@H](CC(C)(C)O)C(=O)N1C[C@]2(C[C@H]1C#N)C(=O)Nc1ccccc12 [Example 443]	100 to 1000
CN(C(=O)c1cc2c(F)cc(F)c(F)c2[nH]1)[C@@H](CC(C)(C)O)C(=O)N1C[C@]2(C[C@H]1C#N)C(=O)Nc1ccccc12 [Example 444]	100 to 1000
CC(C)(F)C[C@H](NC(=O)COc1ccc(F)cc1F)C(=O)N1C[C@]2(C[C@H]1C#N)C(=O)Nc1ccc(Cl)cc12 [Example 445]	100 to 1000
CC(C)(F)C[C@H](NC(=O)c1cc2ccccn2n1)C(=O)N1C[C@]2(C[C@H]1C#N)C(=O)Nc1ccc(Cl)cc12 [Example 446]	100 to 1000
CC(C)(F)C[C@H](NC(=O)c1cccc(OC(F)(F)F)c1)C(=O)N1C[C@]2(C[C@H]1C#N)C(=O)Nc1ccc(Cl)cc12 [Example 447]	< 100
CC(C)(C)C[C@H](NC(=O)c1cc2c(F)cc(F)cc2[nH]1)C(=O)N1C[C@]2(C[C@H]1C#N)C(=O)Nc1ccc(Cl)cc12 [Example 448]	< 100
CC(C)(F)C[C@H](NC(=O)c1ccc(F)cc1F)C(=O)N1C[C@]2(C[C@H]1C#N)C(=O)Nc1ccc(Cl)cc12 [Example 449]	100 to 1000
CC(C)(C)C[C@H](NC(=O)c1cc2c(Cl)cccc2[nH]1)C(=O)N1C[C@]2(C[C@H]1C#N)C(=O)Nc1ccc(Cl)cc12 [Example 450]	< 100
N#C[C@@H]1C[C@@]2(CN1C(=O)[C@H](Cc1ccccc1F)NC(=O)c1cc3c(F)cc(F)cc3[nH]1)C(=O)Nc1ccc(Cl)cc12 [Example 451]	< 100
N#C[C@@H]1C[C@@]2(CN1C(=O)[C@H](Cc1ccc(F)cc1)NC(=O)c1cc3c(F)cc(F)cc3[nH]1)C(=O)Nc1ccc(Cl)cc12 [Example 452]	< 100
N#C[C@@H]1C[C@@]2(CN1C(=O)[C@H](CC1CC1)NC(=O)c1cc3c(F)cc(F)cc3[nH]1)C(=O)Nc1ccc(Cl)cc12 [Example 453]	< 100
[2H]C([2H])([2H])N(C(=O)c1cc2c(F)cc(F)cc2[nH]1)[C@@H](CC(C)(C)F)C(=O)N1C[C@]2(C[C@H]1C#N)C(=O)Nc1ccc(Cl)cc12 [Example 454]	< 100
CN(C(=O)c1cc2c(F)cc(F)cc2[nH]1)[C@@H](CC(C)(C)F)C(=O)N1C[C@]2(C[C@H]1C#N)C(=O)Nc1ccc(Cl)cc12 [Example 455]	< 100
CN(C(=O)c1cc2ncccc2[nH]1)[C@@H](CC1CC1)C(=O)N1C[C@]2(C[C@H]1C#N)C(=O)Nc1ccc(Cl)cc12 [Example 456]	< 100
CN(C(=O)c1cc2cnccc2[nH]1)[C@@H](CC1CC1)C(=O)N1C[C@]2(C[C@H]1C#N)C(=O)Nc1ccc(Cl)cc12 [Example 457]	< 100
CN(C(=O)c1cc2ccncc2[nH]1)[C@@H](CC1CC1)C(=O)N1C[C@]2(C[C@H]1C#N)C(=O)Nc1ccc(Cl)cc12 [Example 458]	< 100
